Results published in patent publication US8481016B2, “Method for inhibition of potential-dependent cation channel” (Kao Corporation, priority 2010, dated 2013).

system: not listed separately; assay: Olfaction masking test by sensory evaluation, hexanoic acid as malodorous substance; assay type: in vivo, human beings; settings: 10 panelists, hexanoic acid 10%, 20 μL, test solution 25%, same cotton ball
Procedure: An olfaction masking test based on sensory evaluation was carried out with 10 panelists. […] The cotton ball was placed in a 50-mL container, and the malodorous substance was volatilized overnight at room temperature.
The evaluation was carried out such that each panelist smelled the odor in the container, and determined the strength of masking of hexanoic acid by the addition of the adamantane derivatives. The intensity of odor of simple hexanoic acid was set to 5.0, which is an intermediate point among the 21 grades of evaluation criteria (0: no odor, 10: strong odor).

Row | Compound | Hexanoic acid odor intensity suppression ratio (%)
1 | O=C(O)CC12CC3CC(CC(C3)C1)C2 [Example 8, 1-Adamantane acetic acid] | 32%

same assay, conditions: 10 panelists, hexanoic acid 10%, 20 μL, test solution 50%, same cotton ball

Row | Compound | Hexanoic acid odor intensity suppression ratio (%)
2 | CC12CC3CC(C)(C1)CC(CO)(C3)C2 [Example 5, 3,5-Dimethyladamantane-1-methanol] | 28%
3 | NCC12CC3CC(CC(C3)C1)C2 [Example 6, 1-Adamantane methylamine] | 78%

system: potential-dependent cation channel of isolated olfactory cells; assay: Test for measuring potential-dependent cation channel activity (whole-cell recording, inward current on depolarization); assay type: cell-based, Japanese fire belly newt (Cynops pyrrhogaster); settings: Reference Example; concentration not given
Procedure: 1. Isolation of Olfactory Cells
To briefly explain the method of isolation, each newt which had been hibernated in ice-water was double-pithed, and the cranium was cut open to remove olfactory mucosa. The removed olfactory mucosa was incubated in a 0.1% collagenase solution at 37° C. for 5 minutes, and collagenase was washed off. Subsequently, the mucosal tissue was crushed by means of a glass pipette to thereby isolate cells. As the normal Ringer's solution, a solution of 110 mM NaCl, 3.7 mM KCl, 3 mM CaCl2, 1 mM MgCl2, 15 mM glucose, 1 mM sodium pyruvate, 10 mM HEPES, and 0.001% (w/v) Phenol Red, at pH 7.4 (adjusted with NaOH), was used.
2. Measurement of Electrical Activity [A. Setting] […] A borosilicate glass capillary (diameter: 1.2 mm) was used as the electrode, and the electrode was produced using a puller for electrode fabrication (P-97, Sutter Instrument Co.) (electrode resistance: approximately 6.0 MΩ). An electrode filling solution and a silver-silver chloride wire were inserted into the electrode, the silver-silver chloride wire was connected to a patch clamp amplifier (EPC10, HEKA), and thus fixation of the membrane potential and depolarization simulation were performed. […] The recording of the membrane current was performed using a computer (IBM-compatible) connected to the patch clamp amplifier (sampling frequency: 1 kHz), and Patch Master software (HEKA) was used for the measurement and analysis. The addition (spraying) of a test substance was carried out using a pressure controller.
[B. Procedure] In order to investigate the effect of each of the test substances described above (see Table 1) on the potential-dependent cation channel activity, the membrane potential of the isolated olfactory cells was fixed at −90 mV, and the membrane potential was depolarized to −20 mV for 20 milliseconds at an interval of 200 milliseconds. The peak intensity of the inward current produced immediately after depolarization (FIG. 1. |a|=[Inward current value produced immediately after depolarization]−[baseline value]) was measured. While depolarization stimulation was continuously repeated, the test substance was adjusted to the various concentrations indicated in Table 1 using normal Ringer's solution, and the mixture was added to the olfactory cells by spraying the mixture (for 650 milliseconds, pressure: 100 kPa) through a glass pipette (tip diameter: 1 μm) that was placed such that the tip of the pipette was located in the vicinity (10 μm) of the olfactory cells . The change in the inward current (FIG. 1, |b|=[Inward current value when the peak intensity was most suppressed]−[baseline value]) resulting from the spraying was investigated. This spraying was carried out continuous for 5 times. Furthermore, the average value A of the peak intensities (a) of the inward current produced by the depolarization immediately before the addition of an extract, and the average value B of the peak intensities (b) of the inward current produced by the depolarization immediately after the addition of an extract were calculated.
The CNG channel current can be easily distinguished from the potential-dependent channel current, in terms of the intensity, peak shape, duration and the like.
The “inward current suppression ratio (%)” was calculated from the “B: average value of the inward current value (b) when the peak intensity was most suppressed” and the “A: average value of the inward current value (a) produced immediately after the depolarization immediately before the addition of an extract,” as shown in the following formula.

Row | Compound | Channel suppression ratio (inward current suppression ratio)
4 | CC12CCC(CC1)C(C)(C)O2 [1,8-Cineol] | 46.5%
5 | CCC(O)COC1CCCCC1C(C)(C)C (centres unmarked) [AMBER CORE] | 27.1%
6 | COc1ccc(C=O)cc1 [ANIS ALDEHYDE] | 89.3%
7 | O=C(OCc1ccccc1)c1ccccc1 [BENTHYL BENZOATE] | 10.7%
8 | O=Cc1ccccc1 [BENZALDEHYDE] | 95.4%
9 | CC(C)=CCCC(C)=CC=O [CIT RAL] | 110.6%
10 | C=CC(C)CCCC(C)(C)O (centres unmarked) [DIHYDRO MYRCENOL] | 109.0%
11 | CCOC(=O)C12CCCC1C1CCC2C1 (centres unmarked) [FRUIT ATE] | 11.6%
12 | CC(C)=CCC/C(C)=C/CO [GERANIOL] | 90.1%
13 | CC(C=O)Cc1ccc(C(C)(C)C)cc1 (centres unmarked) [LILIAL] | 57.9%
14 | C=CC(C)(CCC=C(C)C)OC(C)=O (centres unmarked) [LINALYL ACETATE] | 43.3%
15 | CC(C)(O)CCCC1=CCC(C=O)CC1 (centres unmarked) [LYRAL] | 35.7%
16 | C=CC(C)(O)CCC=C(C)C (centres unmarked) [Linalool] | 106.5%
17 | OCCc1ccccc1 [PHENYL ETHYL ALCOHOL] | 82.6%
18 | CCOC(=O)C(C)C1CCCCC1 (centres unmarked) [POIRENATE] | 48.7%
19 | CC1=CC(C)C(C=O)CC1 (centres unmarked) [TRIPLAL] | 79.9%
20 | CC=CC(=O)C1=C(C)CCCC1(C)C [b-DAMASCONE] | 56.1%
21 | CC/C=C\CCO [cis-3-HEXENOL] | 78.7%
22 | CC(=O)OCCC(C)C [iso-AMYL ACETATE] | 92.0%
23 | CC(=O)OC1CCCCC1C(C)(C)C (centres unmarked) [o-t-B.C.H.A] | 23.8%

same assay, conditions: evaluation concentration 0.01%; depolarization -90 mV to -20 mV; newt olfactory cells

Row | Compound | Inhibition ratio (%) (inward current suppression ratio)
24 | CC12CC3CC(C1)CC(C)(C3)C2 [Comparative Example 2, 1,3-Dimethyladamantane] | 0%
25 | CC12CC3CC(C)(C1)CC(CO)(C3)C2 [Example 5, 3,5-Dimethyladamantane-1-methanol] | 59.9%
26 | NCC12CC3CC(CC(C3)C1)C2 [Example 6, 1-Adamantane methylamine] | 54.5%
27 | CC(=O)C12CC3CC(CC(C3)C1)C2 [Example 7, 1-Adamantylmethyl ketone] | 32%
28 | CCOC(=O)CC(=O)C12CC3CC(CC(C3)C1)C2 [Example 9, Ethyl-3-(1-adamantyl)-3-oxopropionate] | 45.5%
29 | CC(=O)NC12CC3CC(CC(C3)C1)C2 [Example 10, 1-Acetamidoadamantane] | 40.6%
30 | CC(N)C12CC3CC(CC(C3)C1)C2.Cl (centres unmarked) [Example 11] | 78.9%

same assay, conditions: evaluation concentration 0.04%; depolarization -90 mV to -20 mV; newt olfactory cells

Row | Compound | Inhibition ratio (%) (inward current suppression ratio)
31 | C1C2CC3CC1CC(C2)C3 [Comparative Example 1, Adamantane] | 10.9%
32 | OC12CC3CC(CC(C3)C1)C2 [Example 1, 1-Adamantanol] | 72.4%
33 | OCCC12CC3CC(CC(C3)C1)C2 [Example 2, 1-Adamantane ethanol] | 63.4%
34 | O=C(O)CC12CC3CC(CC(C3)C1)C2 [Example 8, 1-Adamantane acetic acid] | 82.5%

system: not listed separately; assay: Sensory evaluation olfaction masking test, isovaleric acid as malodorous substance; assay type: in vivo; settings: 20 panelists; isovaleric acid 1%, 2 μL; test solution 0.1%, 4 μL; six-grade score 0 (masking not achieved) to 5 (perfect masking)
Procedure: [Sensory evaluation test]
An olfaction masking test based on sensory evaluation was carried out with 20 panelists.
2 μL of the malodorous substance and 4 μL of a test solution of each of the test compounds indicated in Table 3 at a concentration of 0.1% were impregnated into separate cotton balls (diameter: 1 cm), and the substances were volatilized for 12 hours at room temperature in each of separate 50-mL injection syringes. The isovaleric acid and test compound volatilized in the syringe were injected into a PP container (capacity: 500 mL) with a cap and were mixed in the container.
The evaluation was carried out such that each panelist slightly opened the cap of the PP container and smelled the odor in the container, and the panelist determined the masking strength for the odor of isovaleric acid.
The evaluation of the masking strength was carried out based on the following six-grade masking scores, based on a comparison with the intensity of odor in a PP container to which only volatilized isovaleric acid had been injected.
0: Masking is not achieved.
1: A very slight masking effect is recognized.
2: A slight masking effect is recognized.
4: Masking is almost achieved.
5: Perfect masking is achieved.

Row | Compound | Masking score
35 | CC=CC(=O)C1=C(C)CCCC1(C)C [b-DAMASCONE] | 2.4
